Reference: US5079257A, “Indoloquinone compounds” (priority 1986, dated 1992)
≈ marks a conversion by molar mass, not a printed value. Where two headings read alike, the source gives them in different places.

Legend:
[1] = test system: R-1 cells (Rhabdomyosarcoma Cells); assay: R-1 activity (bioliquid assay), cytotoxicity; type: cell-based; conditions: for IC50: Rhabdomyosarcoma cell
From the text: The indoloquinones II (formula II) have been tested in respect of their cytotoxic activity against L1210 cells and R-1 cells (Rhabdomyosarcoma Cells) in a bioliquid assay at the department of oncology of the Free University of Amsterdam (Table I). […] (Table II). Eight indoloquinones (E.O. 1, E.O. 2, E.O. 4, E.O. 4A, E.O. 8, E.O. 9, E.O. 33 and E.O. 35) have been tested in a panel of five human tumour lines (TNO Rijswijk; Table III).
For the determination of the R-1 activity, Rhabdomyosarcoma cells were brought into Falcon multiwells (growth area: 9.6 cm^2) (~10^6 cells per dish) containing 3 ml of Dulbecco's medium supplemented with 10% Foeto Calf Serum (FCS). […] Thereupon the drug solution was removed and the cells were covered with fresh medium. After 48 hours the cells were trypsinized and counted on a Sysmex microcell counter (CC110).
(§1) The in vitro L1210 and R-1 activities of the indoloquinones (formula III), were also determined in the bioliquid assays as described above.

[2] = test system: L1210 cells; assay: L1210 activity (bioliquid assay), cytotoxicity; type: cell-based; conditions: for IC50: Mus musculus; for ID-50 L1210: 2880 min
From the text: The indoloquinones II (formula II) have been tested in respect of their cytotoxic activity against L1210 cells and R-1 cells (Rhabdomyosarcoma Cells) in a bioliquid assay at the department of oncology of the Free University of Amsterdam (Table I). In addition to this seven compounds (E.O. 1, E.O. 2, E.O. 4, E.O. 7, E.O. 9, E.O. 16 and E.O. 17) have been tested on L1210 activity in a clonogenic assay at TNO, Rijswijk. Further, the lowest active doses of the compounds E.O. 1, E.O. 2, E.O. 4 and E.O. 9 have been determined at TNO Rijswijk, according to the method described by Lamberts et al. [Oncology, 40, 301 (1983)]. (Table II). Eight indoloquinones (E.O. 1, E.O. 2, E.O. 4, E.O. 4A, E.O. 8, E.O. 9, E.O. 33 and E.O. 35) have been tested in a panel of five human tumour lines (TNO Rijswijk; Table III). From the latter group three indoloquinones (E.O. 1, E.O. 4 and E.O. 9) have been selected for a cytotoxicity study, involving five slowly growing human tumour lines (University of Freiburg; Table IV).
For this purpose, L1210 cells were grown, as suspension, in Falcon multi-wells (growth area: 9.6 cm^2) using RPMI supplemented with 15% FCS and 2-mercapto-ethanol (60 μmol) as medium. In this medium, the cells were continuously incubated with the compound to be tested at 37° C. in an atmosphere of 5% CO2 in humidified air for 48 hours. Thereupon they were counted on a Sysmex microcell counter (CC110).
as §1

[3] = Table IA, para-indoloquinone diesters, read-out: ID-50 R-1
[4] = L1210, 48 h, Table IA, para-indoloquinone diesters, read-out: ID-50 L1210
[5] = Table I, bioliquid assay, read-out: ID-50 R-1
[6] = L1210, Table I, bioliquid assay, 48 hours, read-out: ID-50 L1210
[7] = read-out: ID-50 R-1, Table VIII
[8] = L1210, 48 h, read-out: ID-50 L1210, Table VIII

Compound	IC50 [1, 5] [µg/mL]	IC50 [2, 6] [µg/mL]	ID-50 L1210 ([2]; Table VI) [µg/mL]	other results
COC(=O)/C=C/c1c(C(=O)OC)c2c(n1C)C(=O)C(C)=C(OC)C2=O [E.O. 32, Methyl 1,6-dimethyl-5-methoxy-3-methoxycarbonyl-2-[1H-indole-4,7-dione]acrylate]				IC50 [1, 3]: > 10 µg/mL; IC50 [2, 4]: 3.5 µg/mL (≈ 10.1 µM)
CCNC1=CC(=O)c2c(c(C(=O)OC)c(/C=C/C(=O)OC)n2C)C1=O [E.O. 57, Methyl 5-ethylamino-3-methoxycarbonyl-1-methyl-2-[1H-indole-4,7-dione]acrylate]				IC50 [1, 3]: 3.2 µg/mL (≈ 9.24 µM); IC50 [2, 4]: 1.4 µg/mL (≈ 4.04 µM)
COCc1c2c(n(C)c1/C=C/COC(=O)NCCCl)C(=O)C=C(OC)C2=O [E.O. 10, 5-Methoxy-3-methoxymethyl-1-methyl-2-[1H-indole-4,7-dione]prop-β-en-α-yl N-[2-chloro-1-ethyl]carbamate]	> 10	> 10		ID-50 R-1 ([1]; Table VII): > 10 µg/mL; ID-50 L1210 ([2]; Table VII): > 10 µg/mL
CC(=O)OC/C=C/c1c(COC(C)=O)c2c(n1C)C(=O)C=C(N1CC1C)C2=O (stereo not drawn) [E.O. 53, 3-Acetoxymethyl-1-methyl-5-propyleneamino-2-[1H-indole-4,7-dione]prop-β-en-α-yl acetate]				IC50 [1, 7]: 1.4 µg/mL; IC50 [2, 8]: 3.4 µg/mL
CCNC1=CC(=O)c2c(c(CO)c(/C=C/CO)n2C)C1=O [E.O. 56, 5-Ethylamino-3-hydroxymethyl-1-methyl-2-[1H-indole-4,7-dione]prop-β-en-α-ol]	> 10	5.1 (≈ 17.6 µM)		IC50 ([1]; Table VI, read-out: ID-50 R-1): > 10 µg/mL
CC1=C(N2CC2)C(=O)c2c(CO)c(/C=C/CO)n(C)c2C1=O [E.O. 19, 5-Aziridino-1,6-dimethyl-3-hydroxymethyl-2-[1H-indole-4,7-dione]prop-β-en-α-ol]				IC50 ([1]; read-out: ID-50 R-1, Table I, bioliquid assay): 0.1 µg/mL (≈ 0.331 µM); IC50 [1, 7]: 0.12 µg/mL (≈ 0.397 µM); IC50 [2, 8]: 2 µg/mL (≈ 6.62 µM)
COC1=CC(=O)c2c(c(COC(C)=O)c(/C=C/CO)n2C)C1=O [E.O. 1B, 3-Acetoxymethyl-5-methoxy-1-methyl-2-[1H-indole-4,7-dione]prop-β-en-α-ol]	0.05 (≈ 0.157 µM)	0.9 (≈ 2.82 µM)		
COC1=CC(=O)c2c(c(COC(=O)Nc3ccccc3)c(/C=C/COC(=O)Nc3ccccc3)n2C)C1=O [E.O. 38, 5-Methoxy-1-methyl-3-[N-phenylcarbamoyloxymethyl]-2-[1H-indole-4,7-dione]prop-β-en-α-yl N-phenylcarbamate]	8.5 (≈ 16.5 µM)	> 10		ID-50 L1210 ([2]; Table VII): > 10 µg/mL
CC(=O)OC/C=C/c1c(COC(C)=O)c2c(n1C)C(=O)C=C(NCCN(C)C)C2=O [E.O. 47, 3-Acetoxymethyl-5-[2-(N,N-dimethylamino)ethyl-1-amino]-1-methyl-2-[1H-indole-4,7-dione]prop-β-en-α-yl acetate]	4.4	> 10	> 10	R-1 activity [1]: rather high activities
COC1=CC(=O)c2c(c(COC(N)=O)c(/C=C/COC(N)=O)n2C)C1=O [E.O. 3, 3-Carbamoyloxymethyl-5-methoxy-1-methyl-2-[1H-indole-4,7-dione]prop-β-en-α-yl carbamate]	> 10	8 (≈ 22 µM)		
CC(=O)OCc1c2c(n(C)c1/C=C/CO)C(=O)C=C(NCCN(C)C)C2=O [E.O. 48, 3-Acetoxymethyl-5-[2-(N,N-dimethylamino)ethyl-1-amino]-1-methyl-2-[1H-indole-4,7-dione]prop-β-en-α-ol]	> 10	> 10	> 10	IC50 ([1]; Table VI, read-out: ID-50 R-1): > 10 µg/mL
Cn1c(/C=C/CO)c(CO)c2c1C(=O)C=C(Nc1ccccc1)C2=O [E.O. 15, 3-Hydroxymethyl-5-phenylamino-1-methyl-2-[1H-indole-4,7-dione]prop-β-en-α-ol]		0.7 (≈ 2.07 µM)		
CC(=O)OC/C=C/c1c(COC(C)=O)c2c(n1C)C(=O)C=C(N1CCOCC1)C2=O [E.O. 60, 3-Acetoxymethyl-1-methyl-5-morpholino-2-[1H-indole-4,7-dione]prop-β-en-α-yl acetate]	3.3	> 10	> 10	
CCCCNC(=O)OC/C=C/c1c(COC(=O)NCCCC)c2c(n1C)C(=O)C=C(OC)C2=O [E.O. 37, 3-[N-butylcarbamoyloxymethyl]-5-methoxy-1-methyl-2-[1H-indole-4,7-dione]prop-β-en-α-yl N-butylcarbamate]	6.5 (≈ 13.7 µM)	> 10		ID-50 L1210 ([2]; Table VII): > 10 µg/mL
Cn1c(/C=C/CO)c(CO)c2c1C(=O)C=C(NCCc1ccccn1)C2=O [E.O. 51, 3-Hydroxymethyl-1-methyl-5-[2-pyridylethyl-1-amino]-2-[1H-indole-4,7-dione]prop-β-en-α-ol]	4.5 (≈ 12.2 µM)	> 10	> 10	
CC(=O)OC/C=C/c1c(COC(C)=O)c2c(n1C)C(=O)C=C(NCCO)C2=O [E.O. 5, 3-Acetoxymethyl-5-(2-hydroxyethyl-1-amino)-1-methyl-2-[1H-indole-4,7-dione]prop-β-en-αyl acetate]	> 10	> 10	> 10	IC50 ([1]; Table VI, read-out: ID-50 R-1): > 10 µg/mL
CC(=O)OC/C=C/c1c(COC(C)=O)c2c(n1C)C(=O)C=C(NCCc1ccccn1)C2=O [E.O. 52, 3-Acetoxymethyl-1-methyl-5-[2-pyridylethyl-1-amino]-2-[1H-indole-4,7-dione]prop-β-en-α-yl acetate]	3.3	> 10	> 10	R-1 activity [1]: rather high activities
COC1=CC(=O)c2c(c(COC(=O)c3ccccc3)c(/C=C/COC(=O)c3ccccc3)n2C)C1=O [E.O. 36, 3-Benzoxymethyl-5-methoxy-1-methyl-2-[1H-indole-4,7-dione]prop-β-en-α-yl benzoate]	2.6 (≈ 5.36 µM)	0.7 (≈ 1.44 µM)		
CCNC1=CC(=O)c2c(c(COC(C)=O)c(/C=C/COC(C)=O)n2C)C1=O [E.O. 58, 3-Acetoxymethyl-5-ethylamino-1-methyl-2-[1H-indole-4,7-dione]prop-β-en-α-yl acetate]	> 10	> 10	> 10	IC50 ([1]; Table VI, read-out: ID-50 R-1): > 10 µg/mL
COC1=CC(=O)c2c(c(CNc3ccccc3)c(/C=C/COC(C)=O)n2C)C1=O [E.O. 39, 5-Methoxy-1-methyl-3-(N-phenylaminomethyl)-2-[1H-indole-4,7-dione]prop-β-en-α-yl acetate]	1	10		R-1 activity [1]: rather high R-1 activity
COC1=CC(=O)c2c(c(C)c(/C=C/COC(C)=O)n2C)C1=O [E.O. 41, 5-Methoxy-1,3-dimethyl-2-[1H-indole-4,7-dione]prop-β-en-α-yl acetate]	> 10	> 10		IC50 ([1]; Table VII, read-out: ID-50 R-1): > 10 µg/mL; ID-50 L1210 ([2]; Table VII): > 10 µg/mL
COC1=CC(=O)c2c(c(CO)c(/C=C/COC(C)=O)n2C)C1=O [E.O. 1A, 3-Hydroxymethyl-5-methoxy-1-methyl-2-[1H-indole-4,7-dione]prop-β-en-α-yl acetate]	3.2	2.8		
COC1=CC(=O)c2c(c(COC(=O)NCCCl)c(/C=C/COC(=O)NCCCl)n2C)C1=O [E.O. 13, 3-(N-chloroethylcarbamoyloxymethyl)-5-methoxy-1-methyl-2-[1H-indole-4,74,7-dione]prop-β-en-α-yl N-chloroethyl carbamate]	1.1 (≈ 2.25 µM)	10 (≈ 20.5 µM)		
CCNC1=CC(=O)c2c(c(COC(C)=O)c(/C=C/CO)n2C)C1=O [E.O. 59, 3-Acetoxymethyl-5-ethylamino-1-methyl-2-[1H-indole-4,7-dione]prop-β-en-α-ol]	> 10	> 10		
CC(=O)OCc1c2c(n(C)c1/C=C/CO)C(=O)C=C(NCCc1ccccn1)C2=O [E.O. 62, 3-Acetoxymethyl-1-methyl-5-[2-pyridylethyl-1-amino]-2-[1H-indole-4,7-dione]prop-β-en-α-ol]	> 10	> 10	> 10	IC50 ([1]; Table VI, read-out: ID-50 R-1): > 10 µg/mL
COC1=C(C)C(=O)c2c(c(CO)c(/C=C/CO)n2C)C1=O [E.O. 18, 1,6-Dimethyl-5-hydroxymethyl-5-methoxy-2-[1H-indole-4,7-dione]prop-β-en-α-ol]	2.2 (≈ 7.55 µM)	2.4 (≈ 8.24 µM)		
